According to patent US20010005714A1, “AMPHIPATHIC MOLECULES AS CHOLESTEROL AND OTHER LIPID UPTAKE INHIBITORS” (priority 1996, published 2001):

B1: Apo A-4: natural (human) apoprotein A-IV (protein, UniProt P06727 21-396, looked up)
Apolipoprotein A-IV: EVSADQVATVMWDYFSQLSNNAKEAVEHLQKSELTQQLNALFQDKLGEVNTYAGDLQKKLVPFATELHERLAKDSEKLKEEIGKELEELRARLLPHANEVSQKIGDNLRELQQRLEPYADQLRTQVSTQAEQLRRQLTPYAQRMERVLRENADSLQASLRPHADELKAKIDQNVEELKGRLTPYADEFKVKIDQTVEELRRSLAPYAQDTQEKLNHQLEGLTFQMKKNAEELKARISASAEELRQRLAPLAEDVRGNLRGNTEGLQKSLAELGGHLDQQVEEFRRRVEPYGENFNKALVQQMEQLRQKLGPHAGDVEGHLSFLEKDLRDKVNSFFSTFKEKESQDKTLSLPELEQQQEQQQEQQQEQVQMLAPLES
B2: rabbit apo A-1: rabbit apolipoprotein A-1, literature values for comparison (protein, UniProt P09809 25-266, looked up)
Apolipoprotein A-I: DEPRSSWDKIKDFATVYVDTVKDSGREYVAQFEASAFGKQLNLKLLDNWDSLSSTVSKLQEQLGPVTQEFWDNLEKETEGLREEMNKDLQEVRQKVQPYLDEFQKKWQEEVERYRQKVEPLGAELRESARQKLTELQEKLSPLAEELRDSARTHVDTLRTKLAPYSNELQQRLAARLESIKEGGGASLAEYQAKAREHLSVLSEKARPALEDLRQGLLPVLESFKASVQNVLDEATKKLNTQ
modifications: Apolipoprotein A-I
notes: rabbit apolipoprotein A-1, literature values for comparison
B3: Apo C-2: natural (human) apoprotein C-II (protein, UniProt P02655 29-101, looked up)
Apolipoprotein C-II: DEMPSPTFLTQVKESLSSYWESAKTAAQNLYEKTYLPAVDEKLRDLYSKSTAAMSTYTGIFTDQVLSVLKGEE
modifications: Apolipoprotein C-II

Columns and labels:
[1] = tested on: BBMVs; assay: Inhibition of cholesteryl oleate uptake by BBMVs by peptides of varying lengths (Example 8); format: biochemical; details: for Inhibition of Cholesteryloleate Uptake In. %: donor 0.05 mg total lipid/ml, acceptor 5 mg protein/ml, 23° C.
Description: going from one peptide to the other (top→bottom) 3 amino acids were removed from the N-terminus. The inhibitory effect of the four peptides listed above were compared at 120 μg peptide/ml. The lipid uptake by BBMVs was measured in the presence of 120 μg peptide/ml each as described below.
Donor and acceptor particles dispersed in Tris/NaCl buffer were centrifuged in a Beckman airfuge at 115000 g is for 2 min at 4° C. The dispersion of the acceptor yielded a pellet which was resuspended in Tris/NaCl buffer. Varying amounts of inhibitor dissolved in the same buffer were added to the acceptor dispersion and at time zero the dispersiorn of acceptor with or without inhibitor was mixed with the top 80% of the supernatant obtained by centrifugation of the donor dispersion. The final concentration of the donor was 0.05 mg total lipid/ml and that of the acceptor was 5 mg protein/ml. The resulting dispersion was incubated at 23° C. and after timed intervals the sterol uptake was stopped by dilution of the incubation medium with 2 volumes of Tris/NaCl buffer. BBMV were separated from the donor by centrifugation in the Beckman airfuge at 115000 g for 2 min at 4° C. The radioactivities in the supernatant containing the donor and in the pellet containing the BBMV (acceptor) were determined in a Beckman LS 7500 scintillation counter.

[2] = tested on: brush border membrane vesicles (BBMV); assay: IC50 of cholesteryl oleate uptake at the brush border membrane (Example 6); format: biochemical, rabbit; details: donor 0.1 mg total lipid/ml, acceptor 2 mg protein/ml; 20 min at 25° C.
Description: An appropriate amount of inhibitor dissolved in 84.5 μl buffer (0.05 M Tris pH 7.4, 0.15 M NaCl) is mixed in an Eppendorf tube at time zero with 5 μl of a dispersion of donor and 10.5 μl of a dispersion of acceptor (i.e. brush border membrane vesicles (BBMV)) in the same buffer. The final concentration of the donor vesicles was 0.1 mg total lipid/ml, that of the acceptor was 2 mg protein/ml. The resulting mixture was incubated for 20 min at 25° C., and the reaction was stopped by adding 60 μl of the incubation medium to 120 μl ice-cold bufferin an airfuge tube. The diluted dispersion was immediately centrifuiaed in the airfuge at […] for 2 min. at 4° C. to separate donor vesicles from BBMV. Two 60 μl aliquots of the donor (=supernatant) were counted in a Beckman LS-7500 liquid scintillating counter to determine the radioactivity remaining in tbe donor.
Small unilamellar egg phosphatidycholine (PC) vesicles containing 1 mol % of cholesterol oleate and a trace amount of ^3H-cholesterol oleyl ether were made by dissolving the appropriate amounts of the lipids in CHCl3/CH3OH, (2:1, by vol.), taking the solution to dryness on a rotary evaporator and drying the residue in vacuo. The dried lipid film was dispersed in the appropriate volume of buffer by hand-shaking. The lipid dispersion was subjected to tip sonication as described in Brunner et al, J. Biol. Chem. 253 7538-7546 (1978). The resulting donor dispersion in buffer was centrifuged in the airfuge at 100000 g for 2 min at […]. Only the top 80% of the donor dispersion after centrifugation was used in the lipid uptake experiment.
BBMV were prepared from frozen rabbit small intestine according to Hauser et al (Biochim. Biophys. Acta 602 567-577 (1980)). Prior to use in the uptake experiment determining IC50 values the BBMV were washed to remove any free protein liberated from the BBM. To this end the BBMV dispersion was diluted with buffer 1:1 in an airfuge tube, and the diluted dispersion was centrifuged in the airfuga at 100000 g for 2 min at […]. The supernatant was is carefully decanted, the pellet was resuspended in buffer to the original volume of the BBMV dispersion, and the dispersion was homogenized. […]

[3] = tested on: normal human BBMV; assay: [14C]Cholesterol uptake from egg PC vesicles by normal human duodenal BBMV; format: biochemical; details: human duodenal BBMV
Description: Biopsy samples from human duodenum, 20 to 30 mg of wet tissue each, were suspended in 200 μl buffer (12 mM Tris HCl pH 7.2, 300 mM mannitol, 5 mM EGTA, 1 mM phenylmethylsulfonyl fluoride), frozen in liquid nitrogen and stored at −80° C. prior to use. BBMV were prepared by Mg^+2 precipitation (Hauser et al, Biochim. Biophys. Acta 602 567-577 (1980)) as described in detail by Booth et al (Lancet 1 1066-1069 (1985)). Proteinase K treatment of the BBMV was carried out according to Thurnhofer and Hauser (Biochim. Biophys. Acta 1024 249-262 (1990)). […] Small unilamellar phesrholipid vesicles were prepared by tip sonication (Schulthess, Biochemistry 33 4500-4508 (1994)).
(I) Egg PC small unilamellar vesicles containing […] (^14C] cholesterol and BBMV both dispersed in 10 mM Tris-HCl pH 7.2, 0.15 M NaCl, 5 mM EDTA were incubated at room temperature. After timed intervals phospholipid vesicles and BBMV were separated by centrifugation at 115000 g for 2 min in a Beckman airfuge. The radioactivities present in pellet and supernatant were determined by counting aliquots in a Beckman LS 7500 liquid scintillatior counter. Fusion of egg PC small unilamellar vesicles and BBMV as a possible mechanism of cholesterol uptake was ruled out as discussed in detail in previous studies (Thurnhofer and Hauser, Biochemistry 29 2142-2148 (1990); Compassi, Biochemistry 34 16473-16482 (1995) and Schulthess, J. Lipid. Res. 37 2405-2419 (1996)).
The experimental data were computer-fitted using the following equation valid for single-exponential exchange reactions: X=X∞+[XO−X∞]e^-k1^[(a+b)/a]t, where XO, X and X∞represent the fractions of the labelled lipid in the donor at times 0, t and at equilibrium, respectively. K1 is the pseudo-first-order rate constant of the reaction and a and b are the lipid pools of acceptor and donor, respectively (McKay, Nature 142 997-998 (1938) and Mutsch et al, Biochemistry 25 2134-2140 (1986).
Kinetic measurements were also carried out in the presence of inhibitors; synthetic peptides or apolipoproteins were added to the […] of donor and acceptor vesicles. Cholesterol uptake by native and proteinase K treated BBMV was determined in the presence of increasing concentrations of Ac-18A-NH2, the difference between cholesterol uptake by native and proteinase K treated BBMV is referred as protein-mediated cholesterol uptake in FIG. 6. The IC50 values were determined according to Methods Enzymol. 37 3-22 (1975).

[4] = tested on: rabbit BBMV; assay: Dose response of cholesteryl oleate uptake from egg PC SUVs by rabbit BBMV (FIG. 4B); format: biochemical; details: donor 0.05 mg/ml total lipid, acceptor 1.7 mg protein/ml, 20 min at 25° C., curve fits of FIG. 4B
Description: Small unilamellar vesicles of egg phosphatidylcholine containing 1 mol % cholesteryl oleate and a trace amount of (1,2-^3H2 (N)]-cholesteryl oleyl ether (37 Ci/mmol, from Amersham, UK) as the donor were made as described in Example 1 and BBMVs as the acceptor were prepared from rabbit small intestine (see Example 1). Donor and acceptor both dispersed in Tris/NaCl buffer (0.05 M Tris HCl pH 7.4, 0.15 M NaCl, 0.02% NaN3) and a solution of human apo A-1 or sheep HDL in the same buffer were mixed at time zero (total volume: 0.1 ml) so that the final concentrations of donor and acceptor were 0.05 mg/ml total lipid and 1.7 mg protein/ml, respectively. After incubation of the suspension of donor and acceptor in the presence of inhibitor for 20 min. at 25° C., the reaction was stopped by dilution with 2 vol. of Tris/NaCl buffer. Donor and acceptor were separated by centrifugation in the airfuge at 115,000 g for 2 min. at […]., and the radioactivities in the supernatant containing donor vesicles and in the pellet containing BBMVs were determined in a BECKMAN™ LS 7500 scintillation counter. […]
Experimental conditions were as described for FIG. 4A. The cholesterol absorption activity of BBMVs measured in the absence of inhibition was taken as 100% and the loss in activity observed in the presence of inhibitor is expressed as %. […]

[5] = taken from Chapman (1986), for comparison; cited from earlier work

Molecule	IC50 [2] [µM]	IC50 (μg/mL) of cholesteryl oleate uptake at the brush border membrane [2] [µg/mL]	further results
Ac-Lys-Alα-Phe-Tyr-Asp-Lys-Val-Alα-Glu-Lys-Leu-Lys-Glu-Alα α-Phe-NH2 (Ac-KAFYDKVAEKLKEAF-NH2) [Ac-15A-NH2]			inhibitory effect on cholesteryl oleate uptake (in words, footnote) ([1]; 120 μg peptide/ml): Useful inhibitory effect is seen with Peptides Nos. 1 and 2.; Inhibition of Cholesteryloleate Uptake In. % ([1]; 120 μg peptide/ml): 85%; cholesteryl oleate uptake inhibition activity relative to Ac-18A-NH2 ([1]; brush border membrane vesicle model): 85%
Apo C-1: natural (human) apoprotein C-I (TPDVSSALDKLKEFGNTLEDKARELISRIKQSELSAKMREWFSETFQKVKEKLKIDS; Apolipoprotein C-I; UniProt P02654 27-83, looked up)	1.8 ± 0.4	12 ± 2	
Ac-Asp-Trp-Leu-Alα—Lys-Asp-Tyr-Phe-Lys-Lys-Alα —Leu-Val-Glu-Glu-Phe-Alα—Lys-NH2 [scrambled Ac-18A-NH2, reference compound]			inhibition of protein-mediated cholesterol uptake (in words) [3]: inactive
apo A-II: human apolipoprotein A-2	3.8 ± 0.3	66 ± 5	IC-50 [4]: 66 µg/mL
CH3CO—YDKVAEKLKEAF—NH2 (Ac-YDKVAEKLKEAF-NH2) [Ac-12A-NH2]			Inhibition of Cholesteryloleate Uptake In. % ([1]; 120 μg peptide/ml): 20%
CH3CO—VAEKLKEAF—NH2 (Ac-VAEKLKEAF-NH2) [Ac-9A-NH2]			Inhibition of Cholesteryloleate Uptake In. % ([1]; 120 μg peptide/ml): 0%
Apo C-32: natural (human) apoprotein C-III2	0.5 ± 0.2	4.2 ± 0.2	
Apo C-31: natural (human) apoprotein C-III1	0.6 ± 0.1	4.8 ± 0.8	
Apo E: natural (human) apoprotein E	2.9 ± 0.2	95 ± 7	
B1	0.7 ± 0.1	32 ± 4	
B2			isoelectric point [5]: 5.50
B3	2.1 ± 0.1	19 ± 1	
